Reference: patent publication US7632506B2, “Identification of new NY-ESO-1 epitopes recognized by CD4+ T-cells” (Ludwig Institute for Cancer Research, priority 2005, dated 2009)

Key:
[1] = test system: CD4+ T cell clones NW2337-CD4-1 and NW2337-CD4-10; experiment: 51Cr release assay with peptide-pulsed EBV-B target cells; type: cell-based, human
Protocol: In these experiments, exemplary clones NY-ESO-1 p49-66 specific CD4^+ T cell clone NW2337-CD4-1 and NY-ESO-1 p55-72 specific CD4^+ T cell clone NW2337-CD4-10 were characterized in ^51Chromium (^51Cr) release assays using peptides overlapping the sequence of each stimulation peptide. Standard ^51Cr release assay methods were used. Briefly, autologous EBV B cell target cells were labeled with 100 μCi Na2^51CrO4 for 2 hours, and pulsed with 18 mer or 20 mer NY-ESO-1 peptides (10 μg/ml) for 1 hour. Then, 1×10^3 target cells/well were incubated in 96 V- bottom microwell plates with effector cells at different E/T ratios for 4 h at 37° C. ^51Cr release was measured in the supernatant and the specific cytotoxicity was calculated using the standard methods. Polyclonal T-cell populations were preincubated with unlabeled K562 cells as competitors at a concentration of 40:1 in order to block non-specific effector reactions.
These experiments confirmed recognition of naturally presented NY-ESO-1 epitopes by the CD4+ T-cell clones.

CD8+ T-cells = experiment: ELISPOT of CD8+ T-cells presensitized with Ad2/ESO infected PBMC; type: cell-based, human
Protocol: To examine the possibility that one of the novel MHC class II epitopes described in this study may also represent an MHC class I binding peptide epitope, CD8^+ T-cells from the patients described above, were presensitized with autologous CD4^−/CD8^− PBMC infected with the recombinant adenovirus Ad2/ESO. Responder T-cells were tested in ELISPOT assays for recognition of autologous APC's pulsed with the 28 overlapping 18 mer peptides described in Table 2.

Question: Which “lysis of peptide pulsed autologous NW-2337-EBV B-cell lines by clones NW-2337-CD4-3 and -10” value [1] does the source give for “P55-72: synthetic 18 mer peptide, amino acids 55-72 of NY-ESO-1 (GPGGGAPRGPHGGAASGL; UniProt P78358 55-72, looked up, fragment) [Peptide P55-72]” here?
Answer: Its value is “efficiently lysed”.

Question: And the “recognition by clone NW2337-CD4-1” value ([1]; autologous EBV B cells pulsed with peptide 10 μg/ml, clone generated with p49-66)?
Answer: Its value is “crossreacted”.

Question: What about the “recognition by clone NW2337-CD4-10” value ([1]; autologous EBV B cells pulsed with peptide 10 μg/ml, clone generated with p55-72) of the same substance?
Answer: Its value is “recognized”.

Question: And the “NW1454 CD8+ T-cell recognition of peptide pulsed T2-A3 and HLA-A3 expressing NW115 EBV-B-cell target cells” value (CD8+ T-cells)?
Answer: Its value is “recognition”.

Question: And the “recognition by CD8+ T-cells” value (CD8+ T-cells; CD8+ T-cells from patient NW1231, NW1454 and NW2427, autologous APC's pulsed with peptide)?
Answer: Its value is “observed”.

Question: And the “HLA class I molecule presenting the peptide” value (CD8+ T-cells; only shared HLA class I allele of the three patients)?
Answer: Its value is “HLA-A3”.
